US20200289522A1 (Shionogi & Co., Ltd., priority 2019, published 2020)
Where two headings read alike, the source gives them in different places.

Assays:
[1] = Plasma concentration after oral administration of prodrug Compound II-6 to rats under non-fasting conditions; type: in vivo
Text: FIGS. 1 and 2 show a result of measuring the plasma concentration of Compound III and
Compound II-6, respectively, after oral administration of prodrug Compound II-6 to rats under non-fasting conditions.

[2] = tested on: type B influenza virus; type: in vivo, human; settings: for median time to improvement of influenza symptoms: BXM single dose 40/80 mg, oseltamivir 75 mg twice daily for 5 days
[3] = tested on: influenza virus; type: in vivo, human

Compound: COC(=O)OCOc1c2n(ccc1=O)N([C@@H]1c3ccccc3SCc3c1ccc(F)c3F)[C@@H]1COCCN1C2=O [II-6, Baloxavir marboxil]
- concentration of Compound II-6 in plasma ([1]; non-fasting, oral II-6 0.3, 1, 3 and 10 mg/kg, all time points 0.25 h to 24 h, below limit of quantification): < 0.500 ng/mL
- conversion of prodrug to Compound III in vivo after administration ([1]; oral administration): metabolized promptly to Compound III

Compound: CCOC(=O)C1=C[C@@H](OC(CC)CC)[C@H](NC(C)=O)[C@@H](N)C1 [oseltamivir, reference compound]
- median time to improvement of influenza symptoms ([2]; patients infected with type B influenza virus): 101.6 h

Compound: Baloxavir marboxil [II-6]
- median time to improvement of influenza symptoms ([2]; […]): 74.6 h
- change from baseline in an influenza virus titer [log 10(TCID50/mL)] by time, type B virus ([2]; […], by day 2, vs placebo and oseltamivir): statistically significantly superior to placebo and oseltamivir
- median difference in time to improvement of influenza symptoms, BXM vs placebo ([2]; type B influenza virus, generalized Wilcoxon test p-value=0.0138): -26.0 h
- median difference in time to improvement of influenza symptoms, BXM vs oseltamivir ([2]; type B influenza virus, generalized Wilcoxon test p-value=0.0251): -27.1 h
- primary endpoint (time to improvement of influenza symptoms) compared with placebo ([3]; BXM 40 or 80 mg single oral dose): statistically significant improvement
- change from baseline in an influenza virus titer [log 10(TCID50/mL)] by time ([3]; by day 2, vs placebo and oseltamivir): statistically significantly superior to placebo and oseltamivir
- Difference between BXM and placebo in Time to Improvement of Influenza Symptoms ([3]; difference of medians, generalized Wilcoxon test p-value <0.0001): −29.1
- Time to Improvement of Influenza Symptoms ([3]; median, BXM 40/80 mg single oral dose by body weight, N = 385, ITTI population): 73.2
- incidence of influenza-related complication: bronchitis ([3]; vs placebo): statistically signicantly superior to placebo
- incidence of influenza-related complication: sinusitis ([3]; vs placebo): statistically signicantly superior to placebo
- time to cessation of viral shedding by a virus titer ([3]; vs placebo and oseltamivir): statistically significantly superior to placebo and oseltamivir
- incidence of influenza-related complications, any complications ([3]; vs placebo, Fisher's exact test): statistically significantly superior to placebo
